Measurements published in the METLIN SMRT retention time set (Domingo-Almenara et al. 2019).

Assay: gradient 5% acetonitrile 3 min, to 50% in 2 min, to 85% in 15 min, held 3 min, 100 µL/min
Settings: column: Zorbax Extend-C18 2.1 x 50 mm; eluents: water / acetonitrile, 0.1% formic acid
In short: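 The mobile phases were water and acetonitrile, each with 0.1% formic acid, pumped at 100 μL/min through a Zorbax Extend-C18 column (2.1 × 50 mm, 1.8 μm). Pure standards were injected as mixtures of ~100 molecules and detected by a quadrupole time-of-flight mass spectrometer in positive and negative ionization mode. Retention time came from computationally picked adduct peaks, each inspected by hand.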

Row | RP-LC retention time [s] | SMILES
1 | 660 | O=C(NCC1CC1)c1c(-c2ccccc2)cc(=O)n2c1CCC2
2 | 986 | COc1ccccc1C(=O)NC1(C(F)(F)F)C(=O)N(CC2CCCO2)C2=C1C(=O)CC(C)(C)C2 (stereo not drawn)
3 | 754 | COC(=O)C1=CN(c2cccc(C#N)c2)c2ccccc2S1(=O)=O
4 | 878 | CCC(C(=O)Nc1ccc(Cl)cc1)n1cnc2nc3c(cc2c1=O)CCCC3 (stereo not drawn)
5 | 696 | CCOC(=O)c1cc(S(=O)(=O)N2CCCC2C(=O)N2CCc3ccccc32)cn1C (stereo not drawn)
6 | 586 | Cc1cc(N2CCN(C)CC2)nc2ccc(NC(=S)NCc3ccc4c(c3)OCO4)cc12
7 | 672 | COc1ccc(-c2nc3cnccn3c2Nc2ccc3c(c2)OCO3)cc1OC
8 | 755 | CCOc1ccc(C(=O)NC2CCN(c3cc(-c4cccs4)[nH]n3)C2)cc1OCC (stereo not drawn)
9 | 580 | COc1ccc(NC(=O)N2CCc3nc[nH]c3C2)cc1Cl
10 | 770 | O=C(OCc1ccncc1)c1cn(-c2cccc(Cl)c2)c(=O)c2ccccc12
11 | 576 | COc1cc(NC(=O)N2CCC(CC(=O)N3CCN(c4ccccn4)CC3)CC2)cc(OC)c1OC
12 | 996 | Cc1ccc(N2C(=O)C3N=NN(Cc4nc(-c5ccccc5Cl)no4)C3C2=O)cc1 (stereo not drawn)
13 | 924 | Cc1cc(F)ccc1NS(=O)(=O)c1ccc2c(c1)C(=O)N(C)c1ncccc1O2
14 | 811 | O=C(Nc1ccccc1F)N1CCC(N2CCN(Cc3ccc(F)cc3)C2=O)CC1
15 | 705 | CN1c2ccccc2C(=O)NC12CCN(C(=O)NCc1ccccc1)CC2
16 | 866 | Cc1ccc(OCC(=O)Nc2ccc3c(c2)Sc2ncccc2C(=O)N3C)cc1
17 | 711 | COc1ccc(CNc2ccc(S(=O)(=O)C(C)(C)C)nn2)cc1OC
18 | 701 | Cc1ccn2c(Nc3ccccc3C)c(-c3ccccc3O)nc2c1
19 | 779 | COc1cc2c(cc1OC)C1C(C(=O)Nc3ccc4c(c3)OCO4)c3ccccc3C(=O)N1CC2 (stereo not drawn)
20 | 671 | Cc1cc(C)c(NC(=O)Cn2nc3c4ccccc4ncn3c2=O)c(C)c1
21 | 1020 | COc1ccc(-n2ccnc(NC(=O)Nc3ccc(F)c(Cl)c3)c2=O)cc1
22 | 747 | COc1ccc(C(C)NC(=O)C2C(=O)NC3(C)CC2c2ccccc2O3)cc1 (stereo not drawn)
23 | 949 | COc1cc(NS(=O)(=O)c2cc(-c3cnn4c(C)cc(C)nc34)ccc2OC)cc(OC)c1
24 | 1140 | COc1ccc(NC2=C(c3ccccc3)C(=O)N(Cc3ccccc3)C2=O)cc1
25 | 739 | Cc1cccc2nc(-c3cccc(Br)c3)c(Nc3ccc4c(c3)OCCO4)n12
26 | 896 | COc1cc(NC(=O)CSc2ncc(-c3cccc(Cl)c3)o2)cc(OC)c1OC
27 | 674 | CN1C(=O)C2(c3ccccc31)C(C(=O)Nc1ccc(Br)cc1F)CC1CCCN12 (stereo not drawn)

The remaining lines, values behind:

Row | SMILES | RP-LC retention time [s]
28 | CC(C)(C)NC(=O)Cc1cccn1-c1ccc(F)cc1 | 925
29 | O=C(O)c1cnc(NCc2ccncc2)nc1-c1ccccc1 | 570
30 | O=C(Cn1nc(C(=O)N2CCCC2)c2ccccc21)N1CCC(N2CCCCC2)CC1 | 581
31 | O=C1Nc2ccccc2SC1C(=O)N1CCC(C(=O)N2CCn3c2nc2ccccc23)CC1 (stereo not drawn) | 688
32 | Cn1cnc(S(=O)(=O)N2CCN(Cc3cccc(F)c3)C3(CCOCC3)C2)c1 | 598
33 | O=C(COc1ccc(F)cc1)N1CCN(CC(F)(F)F)CC1 | 771
34 | O=C(Cc1ccccc1Cl)N1CCN(c2nc(CN3CCOCC3)cs2)CC1 | 640
35 | COCCNc1c(-c2ccccc2)nc2sc(C(=O)N3CCN(C)CC3)c(C)n12 | 601
36 | CCN(CC)C(=O)c1ccc2nc(-c3ccc(C)cc3)cn2c1 | 649
37 | Nc1nc(N2CCN(c3ccccn3)CC2)ncc1C(=O)Nc1ccccc1 | 585
38 | CCCCN(CC)C(=O)Cn1c(=O)c2cnc(-c3ccccc3)nc2n(C)c1=O | 1070
39 | CCN(C(=O)C(=O)c1c[nH]c2ccccc12)c1cccc(Cl)c1 | 882
40 | CCc1nc2cc(-c3noc(Cc4cccc(Cl)c4)n3)ccc2o1 | 1170
41 | Cc1ccc2c(Nc3ccc(F)c(C#N)c3)c(C(=O)N3CCOCC3)cnc2n1 | 598
42 | O=S(=O)(c1ccc(F)cc1)N1CCN(c2cnn3cnnc3c2)CC1 | 653
43 | COc1ccc(N2CCN(C(=O)C3CCCN(S(=O)(=O)c4cn(C(C)C)cn4)C3)CC2)cc1 (stereo not drawn) | 723
44 | COc1nn(C)cc1C(=O)N1CCC(C(=O)NCc2cccs2)CC1 | 613
45 | CCOC(=O)c1[nH]c(C)c(CCC(=O)N2CCC(C(=O)NCc3ccccc3Cl)CC2)c1C | 808
46 | CCCNC(=O)N1[C@H]2CC[C@@H]1c1cnc(-c3ccccc3)nc1C2 | 790
47 | O=c1ccn(-c2ccc(Cl)cc2)nc1-c1nc(-c2ccc(Cl)cc2)no1 | 1040
48 | O=C(NCc1ccccn1)C1CCN(C(=O)c2ncn3c2COC(c2ccc(Cl)cc2)C3)CC1 (stereo not drawn) | 644

Row | SMILES | RP-LC retention time [s]
49 | CCS(=O)(=O)Nc1cccc(C2=NN(S(=O)(=O)CC)C(c3ccco3)C2)c1 (stereo not drawn) | 753
50 | CC(C)C(=O)Nc1ccc2c(c1)nc(CN1CCN(C(=O)c3ccco3)CC1)n2C | 605
51 | CCn1ncc(NC(=O)COc2ccc(F)cc2)c(N2CCOCC2)c1=O | 821
52 | O=C(c1ccco1)N1CC(Oc2ccc(-c3nc(-c4ccccc4)no3)cc2)C1 | 856
53 | O=C([C@@H]1C[C@H](F)CN1C(=O)c1ccccc1Cl)N1CCOCC1 | 619
54 | Cc1noc([C@@H]2CC(F)(F)CN2C(=O)c2cc(C)[nH]n2)n1 | 604
55 | CC(=O)N1CCN(C(=O)c2ccc(C(=O)O)cc2)CC1 | 530
56 | CCn1nc(C)cc1C(=O)Nc1nc2c(s1)CC(C)CC2 (stereo not drawn) | 935
57 | Cc1ccc(C)c(N2CCN(c3ccnc(SCC(=O)Nc4cccc(Cl)c4F)n3)CC2)c1 | 1230
58 | CCc1nncn1C1CCN(S(=O)(=O)c2ccccc2C)CC1 | 686
59 | CCc1ccc(S(=O)(=O)c2cnc3ccc(OC)cc3c2N2CCN(C)CC2)cc1 | 653
60 | CC(NC(=O)CN1CN(c2ccccc2)C2(CCN(C(=O)CC(C)(C)C)CC2)C1=O)c1ccccc1 (stereo not drawn) | 931
61 | COC1=CC(=O)OC(/C=C/c2ccccc2)C1 (stereo not drawn) | 883
62 | Cc1ccc(C(C)C)c(OCC(=O)N(Cc2ccc(C)o2)C2CCS(=O)(=O)C2)c1 (stereo not drawn) | 1110
63 | CCCCOc1ccc(S(=O)(=O)Nc2ccc(-c3cn4ccc(C)nc4n3)cc2)cc1 | 776
64 | NS(=O)(=O)c1ccc(CCNC(=O)Cn2nc3c(N4CCOCC4)nccn3c2=O)cc1 | 613
65 | Cc1cc(N2CCOCC2)nc(N2CCN(C(=O)c3ccc(-c4ccccc4)cc3)CC2)n1 | 720
66 | CC(C)c1cc(C(=O)Nc2ccc(F)cc2F)nc2ccnn12 | 1160
67 | O=C(c1ccc(Cl)cc1Cl)N1CCN(c2cc(-c3ccc(Cl)cc3)[nH]n2)CC1 | 981
68 | CCC(=O)N1CCN(c2nc3c(s2)CC(C(=O)Nc2ccc(Cl)c(C)c2)CC3)CC1 (stereo not drawn) | 607
69 | CC(C)NC(=O)N1CCCC(c2cccc(C(=O)NCc3cccs3)c2)C1 (stereo not drawn) | 799

Row | SMILES | RP-LC retention time [s]
70 | CCNC(=O)c1cc2cc(Br)ccc2[nH]1 | 828
71 | CCn1nc(C)n2cc(S(=O)(=O)NC(C)c3ccccc3)cc2c1=O (stereo not drawn) | 882
72 | CS(=O)(=O)N1CCC(OC2CCN(C(=O)Nc3ccccc3F)CC2)CC1 | 703
73 | Clc1ccc(-c2ccc(CNCc3ccncc3)o2)c(Cl)c1 | 742
74 | O=C(Nc1ccccc1C(F)(F)F)c1ccc(N2CCCC2)nn1 | 868
75 | Cn1cc(CCNC(=O)Cc2ccccc2Cl)c2cccnc21 | 700
76 | Brc1ccc(OCc2nn3c(-c4ccccn4)nnc3s2)cc1 | 872
77 | Cc1ccc(C)c(N2CCN(c3ccnc(SCC(=O)Nc4ccc(F)cc4F)n3)CC2)c1 | 1000
78 | Cc1ccccc1OCc1nc(CCN(C)C(=O)c2ccc(Br)o2)no1 | 951
79 | O=C(Cn1ccc2ccccc21)NCc1c(F)cccc1F | 826
80 | CC1CCN(C(=O)C2c3ccccc3CCN2CC(=O)NCC2CCCCC2)CC1 (stereo not drawn) | 1070
81 | CCOc1ccc(NC(=O)CCc2cccc3[nH]ccc23)cc1 | 875
82 | CCn1cc(-c2nc(C(=O)Nc3ccc(C)c(F)c3)cs2)c2cccnc21 | 987
83 | Cc1ccc(CN2CCC(CNC(=O)c3noc(C)c3Cn3nc(C)cc3C)C2)cc1 (stereo not drawn) | 659
84 | CCOc1ccc(NS(=O)(=O)c2cc(-c3[nH]ncc3C(=O)N(C)C)oc2C)cc1 | 686
85 | COCCO[C@H]1C(=O)N(C2CCN(S(=O)(=O)c3cccnc3)CC2)[C@H]1c1ccncc1 | 583
86 | CCc1noc2nc(C)n(CC(=O)NCc3ccc(OC)cc3)c(=O)c12 | 755
87 | Cc1nc2nc(-c3ccc(C(C)(C)C)cc3)nn2c(C)c1CC(=O)N1CCC(C)CC1 | 1090
88 | O=c1nc(NCc2ccccc2)c2ccccc2[nH]1 | 620
